The subject of assay [1] is NCI-H358 cells (KRAS G12C). Nature of the assay: Cell viability assay, G12C. The class given is cell-based, human. The note with it: Homo sapiens; NCI-H358, 72 hrs, Cell Counting Kit-8. As to the method:
(§1) The purpose of this cellular assay was to determine the effects of test compounds on the proliferation of human cancer cell lines NCI-H358 (ATCC-CRL5807) cells, AGS (ATCC-CRL-1739) cells, SW620 (ATCC-CCL-227) over a 3-day treatment period by quantifying the amount of NADPH present at endpoint using Cell Counting Kit-8.
(§2) Cells were seeded at 5,000 cells/well (NCI-H358), 2,000 cells/well (AGS) 2,000 cells/well (SW620) in 96-well assay plates (Corning-3699) and incubated overnight. On the day of the assay, diluted compounds were then added in a final concentration of 0.5% DMSO. After 72 hrs incubation, a tenth of the volume of cell counting kit 8 (Dnjindo-CK04) was added into each well. Read the signal (OD450 minus OD650) using EnVision after 2 hrs incubation. IC50 was determined by fitting a 4-parameter sigmoidal concentration response model.
(Tetrazolium assays rely on reduction of a dye to a coloured formazan, in cell work by metabolically active cells.)

The next assay has as its system AGS cells (KRAS G12D). Description: Cell viability assay, G12D. The class given is cell-based, human. The note with it: Homo sapiens, 72 hrs, Cell Counting Kit-8. How it is done: as §1, §2
A further assay concerns SW620 cells (KRAS G12V). Description: Cell viability assay, G12V. The assay is classed as cell-based, human. The conditions noted are these: Homo sapiens, SW-620; SW620, 72 hrs, Cell Counting Kit-8. How it is done:
as §1, §2

For a further assay, the target named is T1, KRAS G12C-BRAF complex (Homo sapiens, UniProt P01116+P62937, G12C).
T1 construct: expressed in transfected cells
T1 sequence (P01116 1-188 isoform P01116-2 G12C): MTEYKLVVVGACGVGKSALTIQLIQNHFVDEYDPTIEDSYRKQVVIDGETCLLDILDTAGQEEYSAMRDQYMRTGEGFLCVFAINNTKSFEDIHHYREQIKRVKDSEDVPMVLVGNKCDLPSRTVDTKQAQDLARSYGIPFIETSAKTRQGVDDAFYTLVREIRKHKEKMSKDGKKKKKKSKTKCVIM
T1 sequence (P62937 whole entry): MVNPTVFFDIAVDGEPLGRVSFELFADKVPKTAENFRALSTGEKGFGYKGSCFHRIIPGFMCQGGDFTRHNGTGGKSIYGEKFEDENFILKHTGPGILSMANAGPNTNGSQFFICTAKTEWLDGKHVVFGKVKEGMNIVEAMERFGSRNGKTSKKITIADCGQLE
Description: KRAS G12C-BRAF NanoBit assay in HEK293 cells. The assay is classed as cell-based. The note with it: HEK293 stable cell pool, 3 hours of incubation. As to the method: This assay is to measure the ability of tested compounds in disruption of the KRAS G12C-BRAF complex at the cellular level, we established the NanoBit cellular assay in mammalian HEK293 (ATCC) cells. HEK293 cells were grown and maintained using DMEM medium (Thermo Fisher Scientific) with 10% fetal bovine serum and 1% penicillin/streptomycin. Both KRAS G12C and BRAF RBD were cloned into the NanoBit vectors ([…] vectors system, Promega) with the orientations SmBit-KRAS G12C and BRAF RBD-LgBit, respectively, and co-transfected into HEK293 cells. Cells were then selected with 100 μg/mL Hygromycin B (10687010, Thermo Fisher) and Blasticidin (5 μg/mL) for 4 weeks to get the stable cell pool. On the day of the assay, 75 nL of compound solution was presented in a 384-well assay plate as a 16-point 3-fold dilution starting from a final concentration of 30 μM in DMSO. Then cells were seeded at 10,000 cells/25 μL/well in a 384-well plate. After 3 hours of incubation, 6 μL of volume of Nano-Glo® Live Cell Substrate (Promega) was added into each well. Monitor luminescence using ultra384 model in Envision at 20 minutes. Compounds that facilitate disruption of the KRAS G12C-BRAF RBD complex were identified as those eliciting a decrease of luminescence relative to DMSO control wells.

Assay [2] has as its system phosphorylation of ERK, KRAS G12C in NCI-H358 cells. Nature of the assay: pERK inhibition assay, G12C. The class given is cell-based, human. The conditions noted are these: Homo sapiens; NCI-H358, 4 hours of incubation. As to the method:
(§3) This assay is to measure the ability of test compounds in inhibiting the phosphorylation of ERK, the downstream signaling of KRAS G12C in NCI-H358 cells, KRAS G12D in AGS cells, and KRAS G12V in SW620. NCI-H358 (ATCC-CRL5807) cells, AGS (ATCC-CRL-1739) cells, SW620 (ATCC-CCL-227) cells were all grown and maintained using RPMI-1640 medium (Thermo Fisher Scientific) with 10% fetal bovine serum and 1% penicillin/streptomycin. On the day prior to compound addition, cells were plated in tissue culture-treated 96 well plates (Corning-3699) at a density of 30,000 cell/well, 20,000 cell/well, 30,000 cell/well for NCI-H358, AGS and SW620 respectively, and allowed for attachment overnight. Diluted compounds were then added in a final concentration of 0.5% DMSO. After 4 hours of incubation, the medium was removed, 100 μL of 4% formaldehyde was added, and the assay plates were incubated at room temperature for 20 minutes. The plates were then washed once with phosphate buffered saline (PBS), and permeabilized with 100 μL of chilled methanol for 10 minutes. Non-specific antibody binding to the plates was blocked using 50 μL 1×BSA blocking buffer (Thermo-37520, 10-fold dilution by Phosphate-Buffered Saline Tween (PBST) for at least 1 hour at room temperature.
(§4) The amount of phosphor-ERK was determined using an antibody specific for phosphorylated form of ERK. Primary antibody (pERK, CST-4370, Cell Signaling Technology) was diluted 1:300 in blocking buffer, with 50 μL aliquoted to each well, and incubated overnight at 4° C. Cells was washed five times for 5 minutes with PBST. Secondary antibody (HRP-linked anti-rabbit IgG, CST-7074, Cell Signaling Technology) was diluted 1:1000 in blocking buffer, and 50 μL was added to each well and incubated 1-2 hrs at room temperature. Cells was washed 5 times for 5 minutes with PBST, 100 μL TMB ELISA substrate (abcam-ab171523) were added and gently shake for 20 minutes. 50 μL stop solution (abcam-ab171529) were added, and then read the signal (OD450) by EnVision.
(§5) IC50 was determined by fitting a 4-parameter sigmoidal concentration response model.

Assay [3] deals with phosphorylation of ERK, KRAS G12D in AGS cells. Nature of the assay: pERK inhibition assay, G12D. The assay is classed as cell-based, human. The note with it: Homo sapiens, 4 hours of incubation. As to the method:
as §3, §4, §5

Assay [4] has as its system phosphorylation of ERK, KRAS G12V in SW620. Description: pERK inhibition assay, G12V. The class given is cell-based, human. The conditions noted are these: Homo sapiens, SW-620; SW620, 4 hours of incubation. How it is done:
as §3, §4, §5

In general, IC50 refers to the point on the concentration scale where inhibition reaches its midpoint. The low end stands for greater potency in that assay, the high end for weaker potency in that assay.

As for `CO[C@@H](C)c1ncc(N2CCN(CC(F)(F)F)CC2)cc1-c1c2c3cc(c(F)cc3n1CC(F)(F)F)-c1csc(n1)C[C@H](NC(=O)[C@H](C(C)C)N(C)C(=O)N1CC(C#CC(F)(F)F)C1)C(=O)N1CCC[C@H](N1)C(=O)OCC(C)(C)C2` (atropisomer, axis not shown; (M)) [Example 18, N-[(1S)-1-[[(7S,13S)-24-fluoro-(20M)-20-[2-[(1S)-1-methoxyethyl]-5-[4-(2,2,2-trifluoroethyl)piperazin-1-yl]-3-pyridyl]-17,17-dimethyl-8,14-dioxo-21-(2,2,2-trifluoroethyl)-15-oxa-4-thia-9,21,27,28-tetrazapentacyclo[17.5.2.1^2,5.1^9,13.0^22,26]octacosa-1(25),2,5(28),19,22(26),23-hexaen-7-yl]carbamoyl]-2-methyl-propyl]-N-methyl-3-(3,3,3-trifluoroprop-1-ynyl)azetidine-1-carboxamide], the IC50 in assay [1] was 0.006 µM; with AGS cells (KRAS G12D) it was above 10 µM; in the assay with SW620 cells (KRAS G12V), above 10 µM; against KRAS G12C-BRAF complex, 0.24 µM; in assay [2], 0.051 µM; in assay [3] it was above 10 µM. Further, the IC50 in assay [4] is 0.048 µM.
With `CO[C@@H](C)c1ncc(N2CCOCC2)cc1-c1c2c3cc(c(F)cc3n1CC(F)(F)F)-c1csc(n1)C[C@H](NC(=O)[C@H](C(C)C)N(C)C(=O)[C@H]1C[C@@H](C#CC(F)(F)F)C1)C(=O)N1CCC[C@H](N1)C(=O)OCC(C)(C)C2` (atropisomer, axis not shown; (M)) [Example 22, cis-N-[(1S)-1-[[(7S,13S)-24-fluoro-(20M)-20-[2-[(1S)-1-methoxyethyl]-5-morpholino-3-pyridyl]-17,17-dimethyl-8,14-dioxo-21-(2,2,2-trifluoroethyl)-15-oxa-4-thia-9,21,27,28-tetrazapentacyclo[17.5.2.1^2,5.1^9,13.0^22,26]octacosa-1(25),2,5(28),19,22(26),23-hexaen-7-yl]carbamoyl]-2-methyl-propyl]-N-methyl-3-(3,3,3-trifluoroprop-1-ynyl)cyclobutanecarboxamide], the IC50 in assay [1] was 0.012 µM; in the assay on AGS cells (KRAS G12D) it was above 10 µM; in the assay with SW620 cells (KRAS G12V), 0.152 µM; at KRAS G12C-BRAF complex it was 0.036 µM; in assay [2] it was 0.013 µM; in assay [3], 0.172 µM. The same compound showed a concentration for half-maximal inhibition (IC50) in assay [4] of 0.078 µM.
With `CCn1c(-c2cc(N3CCN(CC(F)(F)F)CC3)cnc2[C@H](C)OC)c2c3cc(c(F)cc31)-c1csc(n1)C[C@H](NC(=O)[C@H](C(C)C)N(C)C(=O)N1CC(C#CC(F)(F)F)C1)C(=O)N1CCC[C@H](N1)C(=O)OCC(C)(C)C2` (atropisomer, axis not shown; (M)) [Example 15, N-[(1S)-1-[[(7S,13S)-21-ethyl-24-fluoro-(20M)-20-[2-[(1S)-1-methoxyethyl]-5-[4-(2,2,2-trifluoroethyl)piperazin-1-yl]-3-pyridyl]-17,17-dimethyl-8,14-dioxo-15-oxa-4-thia-9,21,27,28-tetrazapentacyclo[17.5.2.1^2,5.1^9,13.0^22,26]octacosa-1(25),2,5(28),19,22(26),23-hexaen-7-yl]carbamoyl]-2-methyl-propyl]-N-methyl-3-(3,3,3-trifluoroprop-1-ynyl)azetidine-1-carboxamide], the IC50 was 0.02 µM in assay [2], above 10 µM in assay [3] and 0.021 µM in assay [4].
As for `CCn1c(-c2cc(N3CCOCC3)cnc2[C@H](C)OC)c2c3cc(c(F)cc31)-c1csc(n1)C[C@H](NC(=O)[C@H](C(C)C)N(C)C(=O)N1CC(C#CC(F)(F)F)C1)C(=O)N1CCCC(N1)C(=O)OCC(C)(C)C2` (stereo partly drawn) [Example 20, N-[(1S)-1-[[(7S,13S)-21-ethyl-24-fluoro-(20M)-20-[2-[(1S)-1-methoxyethyl]-5-morpholino-3-pyridyl]-17,17-dimethyl-8,14-dioxo-15-oxa-4-thia-9,21,27,28-tetrazapentacyclo[17.5.2.1^2,5.1^9,13.0^22,26]octacosa-1(25),2,5(28),19,22(26),23-hexaen-7-yl]carbamoyl]-2-methyl-propyl]-N-methyl-3-(3,3,3-trifluoroprop-1-ynyl)azetidine-1-carboxamide], the IC50 in assay [1] is 0.025 µM; in the assay on AGS cells (KRAS G12D), above 10 µM; in the assay with SW620 cells (KRAS G12V), 0.119 µM; on KRAS G12C-BRAF complex, 0.084 µM; in assay [2] it was 0.093 µM; in assay [3], 2.51 µM. The same compound came in with an IC50 in assay [4] of 0.096 µM.
On to `CCn1c(-c2cc(N3CCOCC3)cnc2[C@H](C)OC)c2c3cc(c(F)cc31)-c1csc(n1)C[C@H](NC(=O)[C@H](C(C)C)N(C)C(=O)[C@H]1C[C@@H](C#Cc3nccc(C(F)(F)F)n3)C1)C(=O)N1CCC[C@H](N1)C(=O)OCC(C)(C)C2` (atropisomer, axis not shown; (M)) [Example 21, cis-N-[(1S)-1-[[(7S,13S)-21-ethyl-24-fluoro-(20M)-20-[2-[(1S)-1-methoxyethyl]-5-morpholino-3-pyridyl]-17,17-dimethyl-8,14-dioxo-15-oxa-4-thia-9,21,27,28-tetrazapentacyclo[17.5.2.1^2,5.1^9,13.0^22,26]octacosa-1(25),2,5(28),19,22(26),23-hexaen-7-yl]carbamoyl]-2-methyl-propyl]-N-methyl-3-[2-[4-(trifluoromethyl)pyrimidin-2-yl]ethynyl]cyclobutanecarboxamide], for which the IC50 in assay [1] was 0.02 µM; in the assay on AGS cells (KRAS G12D), 0.231 µM; in the assay on SW620 cells (KRAS G12V), 0.222 µM; at KRAS G12C-BRAF complex, 0.085 µM; in assay [2], 0.019 µM; in assay [3], above 10 µM. The same compound showed an IC50 in assay [4] of 0.076 µM.

The values are drawn from patent US20250257075A1, “MACROCYCLIC INHIBITORS OF KRAS FOR THE TREATMENT OF CANCER” (Hoffmann-La Roche Inc., priority 2022, published 2025).
